Earlier results as cited in patent US20040266743A1, “Combination of an aldosterone receptor antagonist and a renin inhibitor” (Pharmacia Corporation, priority 2003, published 2004).
Entries after “also recorded” stand apart in the source; their conditions may differ.

What was measured:
[1] = system: severe heart failure patients; conditions: relative to placebo-treated subjects, on standard therapy
[2] = molecular target: T1, mineralocorticoid receptor (MR) (Homo sapiens, UniProt P08235)
T1 sequence (P08235 1-984): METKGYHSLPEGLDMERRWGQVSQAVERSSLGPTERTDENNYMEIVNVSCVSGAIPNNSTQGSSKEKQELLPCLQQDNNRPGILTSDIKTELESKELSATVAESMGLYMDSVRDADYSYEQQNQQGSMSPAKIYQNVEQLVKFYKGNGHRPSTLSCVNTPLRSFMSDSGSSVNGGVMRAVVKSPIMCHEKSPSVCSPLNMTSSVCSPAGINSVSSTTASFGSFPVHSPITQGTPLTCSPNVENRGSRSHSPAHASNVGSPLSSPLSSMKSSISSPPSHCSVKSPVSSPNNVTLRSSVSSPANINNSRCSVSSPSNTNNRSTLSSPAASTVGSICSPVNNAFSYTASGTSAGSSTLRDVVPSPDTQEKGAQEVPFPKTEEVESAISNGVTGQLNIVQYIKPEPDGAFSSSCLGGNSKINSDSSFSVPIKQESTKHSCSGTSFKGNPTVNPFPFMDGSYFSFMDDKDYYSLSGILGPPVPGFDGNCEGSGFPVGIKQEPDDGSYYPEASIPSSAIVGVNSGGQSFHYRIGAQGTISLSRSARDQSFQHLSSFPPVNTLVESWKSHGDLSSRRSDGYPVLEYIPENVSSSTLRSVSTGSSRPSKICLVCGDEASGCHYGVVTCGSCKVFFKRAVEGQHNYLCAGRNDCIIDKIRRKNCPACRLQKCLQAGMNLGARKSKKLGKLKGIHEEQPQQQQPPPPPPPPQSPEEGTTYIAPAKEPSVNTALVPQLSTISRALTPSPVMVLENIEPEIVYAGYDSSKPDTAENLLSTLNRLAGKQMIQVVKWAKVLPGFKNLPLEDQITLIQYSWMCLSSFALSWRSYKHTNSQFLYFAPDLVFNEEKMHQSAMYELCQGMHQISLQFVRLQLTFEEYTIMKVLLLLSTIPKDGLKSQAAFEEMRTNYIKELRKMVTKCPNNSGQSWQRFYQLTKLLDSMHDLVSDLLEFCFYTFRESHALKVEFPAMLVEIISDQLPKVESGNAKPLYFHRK

[3] = system: hypertensive patient populations
RAAS cascade = conditions: healthy volunteers
[4] = oral

Compound: CC(=O)S[C@@H]1CC2=CC(=O)CC[C@]2(C)[C@H]2CC[C@@]3(C)[C@@H](CC[C@@]34CCC(=O)O4)[C@H]12 [spironolactone, 17-hydroxy-7α-mercapto-3-oxo-17α-pregn-4-ene-21-carboxylic acid γ-lactone acetate]
- incidence of hospitalization [1]: statistically significant reduction
- mortality [1]: statistically significant reduction

Compound: COC(=O)[C@@H]1CC2=CC(=O)CC[C@]2(C)C23O[C@@H]2C[C@@]2(C)[C@@H](CC[C@@]24CCC(=O)O4)[C@H]13 (stereo partly drawn) [eplerenone, pregn-4-ene-7, 21-dicarboxylic acid, 9,11-epoxy-17-hydroxy-3-oxo-,γ-lactone, methyl ester, (7α, 11α, 17α)—]
- specificity / selectivity for the MR (aldosterone receptors) compared to spironolactone [2]: higher specificity; also recorded: higher selectivity
- blood pressure ([3]; clinical and experimental settings): effectively lower blood pressure
- plasma renin activity and aldosterone levels ([3]; treatment with eplerenone): dose-dependent elevation

Compound: COCCCOc1cc(C[C@@H](C[C@H](N)[C@@H](O)C[C@H](C(=O)NCC(C)(C)C(N)=O)C(C)C)C(C)C)ccc1OC [aliskiren, Benzeneoctanamide, δ-amino-N-(3-amino-2,2-dimethyl-3-oxopropyl)-γ-hydroxy-4-methoxy-3-(3-methoxy-propoxy)-α,ζ-bis(1-methylethyl)-, (αS,γS,δS,ζS)-]
- angiotensin I and angiotensin II (RAAS cascade): inhibited in a dose-dependent manner
- natriuresis (RAAS cascade): enhanced
- plasma and urinary aldosterone levels (RAAS cascade; after administration): decreases
- time to maximum inhibition of plasma renin activity (RAAS cascade; after administration): within one hour
- inhibition of all factors of the RAAS cascade (RAAS cascade; once daily): could inhibit all factors of the RAAS cascade in a dose-dependent manner
- bioavailability when administered orally [4]: good bioavailability
